Results reported in patent US20030235873A1, “Process for detecting enzyme activity in an immunoassay” (priority 2000, published 2003).
*1 amine or outer side, *2 acyl side, *3 side chain or, on linkers, in order; H or OH if unused. Where a SMILES comes first, the peptide text is derived from it. Bridges are numbered along the chain shown (N, C = ends). Where no end group is shown, it is not given here. [ ]: non-standard residue; d: D form. Adda = CO[C@@H](Cc1ccccc1)[C@@H](C)/C=C(C)/C=C/[C@H](N[*:1])[C@H](C)C(=O)[*:2]; dAsp(3S-Me) = C[C@H](C(=O)[*:3])[C@@H](N[*:1])C(=O)[*:2]; d(γGlu) = O=C(O)[C@@H](CCC(=O)[*:2])N[*:1]; pY = N[C@@H](Cc1ccc(OP(=O)(O)O)cc1)C(=O)O; pT = C[C@@H](OP(=O)(O)O)[C@H](N)C(=O)O; NMeDha = C=C(NC)C(=O)O

What was measured:
[1] = tested on: polyclonal anti active JNK antibody #9251 (New England Biolabs NEB #9251); experiment: Fluorescence polarization binding of TAMRA-labelled JNK active-site peptides to anti-active JNK antibody; conditions: peptide at 5 nM
Experimental: This polyclonal antibody detects all three isoforms of the SAPK1/JNK proteins only when they are activated by dual phosphorylation at threonine183/tyrosinel85. Binding of poly-clonal anti active JNK antibody #9251 (concentration: 0.02 mg/ml, equiv. 130 nM) to TAMRA-labelled P1*° peptide (at 5 nM) was measured at different antibody concentrations by fluorescence polarization. As a control, no binding of the antibody to the monophosphorylated TAMRA-P1° peptide (at 5 nM) is detected.
The results of this experiment are illustrated in FIG. 4. […] The polarization values dramatically increase when using the double-phosphorylated TAMRA-P1*° peptide in contrast to mono-phosphorylated labelled TAMRA-P1° peptide (sequences see below).

PP2A phosphatase = target: T1, PP2A phosphatase (Homo sapiens, UniProt P67775); experiment: Direct phosphatase assay: inhibition of PP2A-dependent dephosphorylation of TAMRA-P1°* peptide (fluorescence polarization read-out); format: biochemical
T1 construct: purchased Upstate Biotech 14-111 (lot no. 20574)
T1 sequence (P30153 2-589): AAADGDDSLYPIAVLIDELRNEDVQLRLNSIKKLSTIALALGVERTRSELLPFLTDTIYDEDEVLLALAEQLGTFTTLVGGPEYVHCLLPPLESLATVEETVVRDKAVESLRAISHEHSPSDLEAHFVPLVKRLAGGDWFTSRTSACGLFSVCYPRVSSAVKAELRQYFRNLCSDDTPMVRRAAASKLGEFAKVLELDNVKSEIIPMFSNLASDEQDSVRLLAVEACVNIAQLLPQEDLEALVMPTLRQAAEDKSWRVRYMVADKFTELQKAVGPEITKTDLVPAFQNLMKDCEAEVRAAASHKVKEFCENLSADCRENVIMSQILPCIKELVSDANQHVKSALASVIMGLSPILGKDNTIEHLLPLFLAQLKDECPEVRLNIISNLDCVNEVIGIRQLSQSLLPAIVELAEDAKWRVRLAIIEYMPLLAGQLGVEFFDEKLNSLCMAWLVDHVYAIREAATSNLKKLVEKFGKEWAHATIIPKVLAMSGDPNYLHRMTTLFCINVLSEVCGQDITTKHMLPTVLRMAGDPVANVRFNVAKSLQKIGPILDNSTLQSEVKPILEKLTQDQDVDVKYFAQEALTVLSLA
T1 sequence (P67775 whole entry): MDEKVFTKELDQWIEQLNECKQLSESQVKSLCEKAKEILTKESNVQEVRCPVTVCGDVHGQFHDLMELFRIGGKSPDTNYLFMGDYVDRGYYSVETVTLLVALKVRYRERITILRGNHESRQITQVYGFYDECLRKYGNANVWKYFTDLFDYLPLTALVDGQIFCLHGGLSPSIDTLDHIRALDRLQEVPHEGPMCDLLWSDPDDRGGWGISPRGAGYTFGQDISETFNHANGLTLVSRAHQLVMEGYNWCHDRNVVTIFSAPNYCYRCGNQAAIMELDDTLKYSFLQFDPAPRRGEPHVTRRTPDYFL

[2] = tested on: antibody NEB #9251 (polyclonal anti-active JNK antibody); experiment: Fluorescence correlation spectroscopy competition of the NEB #9251 antibody-P1°*-TAMRA complex with non-fluorescent peptides; format: binding; conditions: antibody 1:20 diluted, TAMRA-labelled peptide P1*° 5 nM
[3] = tested on: ac(K9)-p(S10)-specific antibody from New England Biolabs (#9711); experiment: Binding of TAMRA-labelled histone H3 peptides to ac(K9)-p(S10)-specific antibody; conditions: FIG. 15 and 16
Source text: (§1) The histone deacetylase assay uses fluorescently-labelled peptides (TAMRA dye as a label) derived from histone H3 sequence. In the assay two different polyclonal antibodies are used which bind specifically to acetylated lysine redidues (ac(K) at positions ac(K9) or […]). Acetylation of a single lysine results in a relative small change of the molecular structure of the aminoacid side chain. The resulting change in the binding affinity to acetyl-specific antibodies is in general difficult to detect in a homogeneous binding assay. According to the invention, therefore an additional modification (phosphorylation of serine at position (S10)) was included within the H3-peptide sequence to enhance the affinity of the peptides to the applied antibodies. From the results of three independing binding experiments (FIGS. 15-17) it is evident that dual-modified peptide conjugates confer a higher affinity for the applied antibodies when compared to mono-modified peptide conjugates. This characteristic is of great value to measure the different acetylation states of lysine residues using acetyl-specific antibodies. In principle, the described binding assay can be applied both for the detection of acetyltransferase or deacetylase activity, in particular histone acetyltransferase/deacetylase.

[4] = tested on: p(S10)-ac(K14)-specific antibody from Upstate Biotech (#07-081); experiment: Binding of TAMRA-labelled histone H3 peptides to p(S10)-ac(K14)-specific antibody; conditions: FIG. 17
Source text: as §1

5-TAMRA-AEEA-Lys-Phe-Met-Met-Thr-Pro-pTyr-Val-Val-Thr-Arg-NH2 (chain 1 KFMMTP; chain 2 YVVTR; not fully specified; 5-TAMRA-AEEA, phospho residue, C-terminal amide; printed: Lys-Phe-Met-Met-Thr-Pro-; printed: Tyr-Val-Val-Thr-Arg-) [TAMRA-P1°]
Binding of the antibody to the peptide ([1]; control): no binding

5-TAMRA-AEEA-Lys-Phe-Met-Met-pThr-Pro-pTyr-Val-Val-Thr-Arg-NH2 (chain 1 KFMM; chain 2 YVVTR; not fully specified; 5-TAMRA-AEEA, pThr-Pro, phospho, C-terminal amide; printed: Lys-Phe-Met-Met-; printed: Tyr-Val-Val-Thr-Arg-) [P1*°-TAMRA]
Kd ([1]; different antibody concentrations, read-out: Affinity of polyclonal anti-active-JNK antibody for peptide (KD)): 2.6 nM

C=C1C(=O)N[C@H](C)C(=O)N[C@@H](CC(C)C)C(=O)N[C@@H](C(=O)O)[C@H](C)C(=O)N[C@@H](CCCNC(=N)N)C(=O)N[C@@H](/C=C/C(C)=C/[C@H](C)[C@H](Cc2ccccc2)OC)[C@H](C)C(=O)N[C@@H](C(=O)O)CCC(=O)N1C [microcystin-LR] (R[Adda][d(γGlu)][NMeDha][dA]L[dAsp(3S-Me)]-OH; lactam N-7)
Inhibition of PP2A (PP2A phosphatase): full inhibition

C=C1[C@@H](O)[C@@H]2O[C@]3(CC[C@H](/C=C/[C@@H](C)[C@@H]4CC(C)=C[C@@]5(O[C@H](C[C@@](C)(O)C(=O)O)CC[C@H]5O)O4)O3)CC[C@H]2O[C@@H]1[C@@H](O)C[C@H](C)[C@H]1O[C@@]2(CCCCO2)CC[C@H]1C [ocadaic acid]
IC50 (PP2A phosphatase; PP2A 0.003 units, P1°*-TAMRA peptide 10 nM, 30° C., read-out: IC50 (half-maximal inhibitory concentration, PP2A-dependent dephosphorylation of TAMRA-P1°* peptide)): 0.3 nM

H-KFMM[pT]P[pY]VVTR-NH2 [P1*°]
Competition with TAMRA-labelled peptide P1*° for binding to the antibody [2]: able to compete effectively
IC50 ([2]; read-out: IC50 (competition of antibody binding to TAMRA-labelled peptide P1*°)): 5 nM

H-Lys-Phe-Met-Met-Thr-Pro-pTyr-Val-Val-Thr-Arg-NH2 (chain 1 H-KFMMTP; chain 2 [pY]VVTR-NH2; not fully specified (C-terminus); also: chains 1 and 2 are one peptide continuing through pTyr) [P1°, monophosphorylated control peptide]
Competition with TAMRA-labelled peptide P1*° for binding to the antibody [2]: did note compete effectively

H-Lys-Phe-Met-Met-pThr-Pro-Tyr-Val-Val-Thr-Arg-NH2 (chain 1 H-KFMM; chain 2 [pT]PYVVTR-NH2; not fully specified (C-terminus); also: chains 1 and 2 are one peptide continuing through pThr) [P1*, monophosphorylated control peptide]
Competition with TAMRA-labelled peptide P1*° for binding to the antibody [2]: did note compete effectively

TAMRA-A-R-K-p(S10)-T-T-G-K-A [peptide #13]
Binding of the ac(K9)-p(S10)-specific antibody to the peptide [3]: only low binding

TAMRA-A-R-K-p(S10)-T-T-G-ac(K14)-A-P [peptide #11]
Binding of the ac(K9)-p(S10)-specific antibody to the peptide [3]: only low binding
Binding of the p(S10)-ac(K14)-specific antibody to the peptide [4]: binding

TAMRA-A-R-ac(K9)-S-T-T-G-K-A [peptide #12]
Binding of the ac(K9)-p(S10)-specific antibody to the peptide [3]: only low binding

TAMRA-A-R-ac(K9)-p(S10)-T-T-G-K-A-P [peptide #10]
Binding of the ac(K9)-p(S10)-specific antibody to the peptide [3]: binding
Binding of the p(S10)-ac(K14)-specific antibody to the peptide [4]: only low binding
